According to patent US11396495B2, “Amine compound for inhibiting SSAO/VAP-1 and use thereof” (SUNSHINE LAKE PHARMA CO., LTD., priority 2017, dated 2022):
Where a name gives a salt, the structure may show the parent alone.

Legend:
[1] = Pharmacokinetics in SD rats after intravenous or oral administration; assay type: in vivo; conditions: male, rat, plasma; for Vd: read-out: Vss
Experimental: 4. Pharmacokinetic Activities of the Compounds of the Invention
Test purpose: The following methods were used to evaluate the pharmacokinetics of the compound of the invention.
SD rats: male, 180-220 g, 7-8 weeks old, purchased from Hunan SJA Laboratory Animal Co., Ltd.
Test compound was prepared by dissolving in a mixture of 5% DMSO+5% KolliphorHS15+90% Saline and adjusted according to the dissolution of each compound, so that the compound can be completely dissolved.
The samples were processed by liquid-liquid extraction, separated by chromatography, quantitatively analyzed by multiple reaction ion monitoring (MRM) on triple quadrupole tandem mass spectrometer, and the results were calculated by using quantitative software.
Taking 30 μL of plasma sample precisely, adding 250 μL of internal standard, and vortex mixing uniformly. Extracting once with 1 mL MTBE, centrifugating at 13000 rpm and 4° C. for 2 min, taking 800 μL of supernatant, and evaporating it in a 96-well termovap sample concentrator, dissolving the residue with 150 μL methanol/water=50/50, vortex mixing, injecting 8 μL.
Determining the content of different compounds in the plasma of rats after the administration by using LC/MS/MS method.
Pharmacokinetic parameters were calculated using a noncompartmental method by WinNonLin 6.1 software.
The pharmacokinetic data of the compounds of the invention were listed in table 4, wherein the compound listed in table 4 is the compound in the preparation examples with the same compound number: […]

[2] = target: Human recombinant SSAO/VAP-1 (Homo sapiens (Human), UniProt Q16853); experiment: Determination of inhibitory activity of human recombinant SSAO/VAP-1 (Amplex Red, benzylamine); assay type: biochemical; conditions: human recombinant SSAO/VAP-1, 30 min preincubation at room temperature; read-out: SSAO/VAP-1(Human recombinant protein) IC50/nM
Sequence of Human recombinant SSAO/VAP-1 (Q16853 whole entry): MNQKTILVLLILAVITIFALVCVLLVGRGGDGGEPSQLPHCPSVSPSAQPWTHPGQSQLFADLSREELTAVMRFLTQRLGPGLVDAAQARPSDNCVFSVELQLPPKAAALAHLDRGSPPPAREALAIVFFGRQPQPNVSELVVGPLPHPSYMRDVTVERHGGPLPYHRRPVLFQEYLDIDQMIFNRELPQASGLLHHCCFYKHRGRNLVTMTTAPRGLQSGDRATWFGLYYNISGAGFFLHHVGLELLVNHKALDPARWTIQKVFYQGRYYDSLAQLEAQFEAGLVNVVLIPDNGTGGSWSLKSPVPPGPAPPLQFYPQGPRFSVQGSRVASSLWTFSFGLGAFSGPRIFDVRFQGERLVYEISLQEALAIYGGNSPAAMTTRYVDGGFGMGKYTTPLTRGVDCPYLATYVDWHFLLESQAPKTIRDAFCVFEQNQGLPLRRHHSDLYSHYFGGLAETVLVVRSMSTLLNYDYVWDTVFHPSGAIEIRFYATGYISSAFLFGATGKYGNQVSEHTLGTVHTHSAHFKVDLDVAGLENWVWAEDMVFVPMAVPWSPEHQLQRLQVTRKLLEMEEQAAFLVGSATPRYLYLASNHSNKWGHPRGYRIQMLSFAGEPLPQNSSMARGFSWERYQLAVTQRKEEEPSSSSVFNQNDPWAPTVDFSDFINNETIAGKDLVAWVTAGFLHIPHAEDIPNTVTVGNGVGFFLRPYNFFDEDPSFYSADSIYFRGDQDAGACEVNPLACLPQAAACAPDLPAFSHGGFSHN
Experimental: 1. Determination of Inhibitory Activity of Human Recombinant SSAO/VAP-1
Test purpose: The following methods can be used to determine the inhibitory activity of the compounds described in the examples of the invention for human recombinant SSAO/VAP-1.
Human recombinant SSAO/VAP-1 (VAP-1, human) purchased from Sigma, Cat. No. SRP6241;
The test compound was dissolved in DMSO and diluted to 10 concentrations in 4-fold serial dilution. In 384 well plates, 25 μL of human recombinant SSAO/VAP-1 (1.6 μg/ml) was added to each well. 100 nL of test compounds with different concentrations were added to each well containing human recombinant SSAO/VAP-1 and incubated at room temperature for 30 min. After 30 min incubation, 25 μl of Amplex® red monoamine oxidase assay kit (containing a reaction mixture of 200 μm Amplex Red reagent, 1 U/ml HRP and 1 mm benzylamine hydrochloride) was added to the corresponding well, and incubated at room temperature and dark for 60 min. After 60 min, the relative fluorescence unit (RFU) was read by using PerkinElmer's Envision at 530-560 nm excitation and 590 nm emission. The curve was drawn by using the graph pad prism 5 software, and the IC50 value was calculated. The results were shown in table 1, wherein the compound listed in table 1 is the compound in the preparation examples with the same compound number: […]

[3] = target: rat adipose tissue homogenate SSAO/VAP-1 (Rattus norvegicus (Rat), UniProt O08590); experiment: Determination of inhibitory activity of rat adipose tissue homogenate SSAO/VAP-1; assay type: biochemical, Sprague Dawley rats; conditions: rat abdominal adipose tissue homogenate, pargyline pretreated, 37° C.
Sequence of rat adipose tissue homogenate SSAO/VAP-1 (O08590 whole entry): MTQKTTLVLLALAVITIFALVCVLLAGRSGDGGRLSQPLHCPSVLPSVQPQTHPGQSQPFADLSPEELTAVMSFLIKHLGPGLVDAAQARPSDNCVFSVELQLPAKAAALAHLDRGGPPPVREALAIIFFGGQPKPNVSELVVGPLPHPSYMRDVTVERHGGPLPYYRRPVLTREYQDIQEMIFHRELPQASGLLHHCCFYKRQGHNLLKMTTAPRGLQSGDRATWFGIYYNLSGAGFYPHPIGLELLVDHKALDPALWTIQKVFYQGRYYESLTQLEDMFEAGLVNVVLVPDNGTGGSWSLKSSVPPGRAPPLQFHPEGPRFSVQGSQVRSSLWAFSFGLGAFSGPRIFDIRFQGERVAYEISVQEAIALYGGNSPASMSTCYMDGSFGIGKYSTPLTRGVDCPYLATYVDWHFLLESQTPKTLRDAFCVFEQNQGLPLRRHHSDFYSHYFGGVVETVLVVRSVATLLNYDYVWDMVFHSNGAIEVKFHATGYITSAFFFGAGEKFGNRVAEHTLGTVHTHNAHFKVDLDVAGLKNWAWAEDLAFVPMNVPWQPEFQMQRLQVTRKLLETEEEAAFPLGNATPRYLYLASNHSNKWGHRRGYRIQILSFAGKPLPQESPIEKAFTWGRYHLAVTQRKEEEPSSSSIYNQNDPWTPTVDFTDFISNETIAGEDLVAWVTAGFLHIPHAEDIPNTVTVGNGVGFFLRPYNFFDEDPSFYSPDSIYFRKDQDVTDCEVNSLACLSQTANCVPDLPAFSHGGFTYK
Experimental: 2. Determination of Inhibitory Activity of Rat Adipose Tissue Homogenate SSAO/VAP-1
Test purpose: The following methods can be used to determine the inhibitory activity of the compounds of the invention for rat adipose tissue homogenate SSAO/VAP-1.
The abdominal fat removed from Sprague Dawley rats was a tissue rich in SSAO/VAP-1. 5 mL Of HES buffer per gram of rat abdominal adipose tissue (20 mM Sodium N-piperazine-N-ethanesulfonate, 1 mm EDTA, 250 mM sucrose, 1×PMSF and 100 mM (3-glycerol phosphate disodium salt hydrate, pH 7.4) was added for homogenizing. The fat tissue was homogenized for 3 min by using Bertin precellys 24 multi-functional sample homogenizer of Bertin technologies, and the fat tissue homogenate was centrifuged for 10 min at 4° C. and 20000 g, and the middle transparent supernatant was taken. The supernatant was incubated with 0.5 mm Pargyline hydrochloride dissolved in HES buffer at 37° C. for 30 min. After 30 min incubation, 25 μl of fat tissue supernatant was added to the standard 96 well plate. The test compound was dissolved in DMSO and diluted to 6 concentrations. 25 μL Of the test compounds with different concentrations was added to each well containing the supernatant of fat tissue and incubated at 37° C. for 30 min. After incubation, 50 μL of the reaction mixture containing 80 μM benzylamine hydrochloride (containing 100 μM Amplex® red and 0.2 U/mL HRP, Amplex® Red Hydrogen peroxideperoxidase assay kit) was added to the corresponding wells and incubated at 37° C. for 30 min. After 30 min, the relative fluorescence unit (RFU) was read by using PHERAstar FSX enzyme marker of BMG LABTECH at 540 nm excitation and 580 nm emission. The curve was drawn by using the graph pad prism 5 software, and the IC50 value was calculated. The results were shown in table 2, wherein the compound listed in table 2 is the compound in the preparation examples with the same compound number: Table 2: inhibitory activity of the compound of examples of the invention for SSAO/VAP-1 of fat tissue homogenate

human recombinant DAO = human recombinant DAO (Homo sapiens (Human), UniProt P19801); experiment: Determination of selective inhibitory for DAO (diamine oxidase); assay type: biochemical; conditions: human recombinant DAO, 1,4-diaminobutane substrate
Sequence of human recombinant DAO (P19801 20-751): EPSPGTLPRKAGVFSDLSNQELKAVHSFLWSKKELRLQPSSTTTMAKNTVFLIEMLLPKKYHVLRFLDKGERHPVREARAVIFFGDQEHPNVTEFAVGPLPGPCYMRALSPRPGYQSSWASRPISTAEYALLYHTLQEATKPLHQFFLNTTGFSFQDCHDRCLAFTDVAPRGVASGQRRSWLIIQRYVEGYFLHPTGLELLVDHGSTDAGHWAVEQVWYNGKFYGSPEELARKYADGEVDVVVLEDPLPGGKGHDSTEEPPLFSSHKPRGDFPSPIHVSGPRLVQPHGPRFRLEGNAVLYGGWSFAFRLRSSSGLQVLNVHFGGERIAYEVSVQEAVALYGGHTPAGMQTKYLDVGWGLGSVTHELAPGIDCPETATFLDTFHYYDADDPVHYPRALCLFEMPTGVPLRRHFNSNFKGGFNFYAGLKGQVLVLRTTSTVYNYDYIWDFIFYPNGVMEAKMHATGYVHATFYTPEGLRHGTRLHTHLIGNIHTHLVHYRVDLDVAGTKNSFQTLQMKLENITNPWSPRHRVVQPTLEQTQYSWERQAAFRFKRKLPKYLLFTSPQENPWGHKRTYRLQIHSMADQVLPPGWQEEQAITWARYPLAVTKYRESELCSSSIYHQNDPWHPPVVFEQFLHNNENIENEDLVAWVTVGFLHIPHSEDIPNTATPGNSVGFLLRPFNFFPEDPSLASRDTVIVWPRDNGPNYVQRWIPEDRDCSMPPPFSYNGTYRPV
Experimental: 3. Determination of Selective Inhibitory for DAO (Diamine Oxidase)
Test purpose: The following methods can be used to determine the selective inhibitory activity of the compounds of the invention for DAO.
human recombinant DAO (Recombinant Human ABP-1/DAO) purchased from R&D, Cat. No. 8298-AO;
The test compound was dissolved in DMSO and diluted to 6 concentrations in 5-fold serial dilution. In 384 well plates, 24 μL of human recombinant DAO (1 μg/mL) was added to each well. 1 μL Of test compounds with different concentrations were added to each well containing human recombinant DAO and incubated at 37° C. for 30 min. After 30 min incubation, 25 μL of Amplex® Red Hydrogen PeroxidePeroxidase Assay Kit (containing a reaction mixture of 100 μM Amplex® Red and 0.2 U/mL HRP) containing 1 M 1,4-Diaminobutane dihydrochloride was added to the corresponding well, and incubated at 37° C. and dark for 30 min. After 30 min, the relative fluorescence unit (RFU) was read by using PHERAstar FSX enzyme marker of BMG LABTECH at 540 nm excitation and 580 nm emission. The curve was drawn by using the graph pad prism 5 software, and the IC50 value was calculated. The results were shown in table 3, wherein the compound listed in table 3 is the compound in the preparation examples with the same compound number: […]

## CCOC(=O)CN1CCc2cc(OC/C(=C/F)CN)ccc2C1=O [Compound 12, ethyl 2-[6-[(E)-2-(aminomethyl)-3-fluoro-allyloxy]-1-oxo-3,4-dihydroisoquinolin-2-yl]acetate hydrochloride]
[1]; iv, I.V., 1 mg/kg
  AUC(0-inf): 843 ng·h/mL
  AUC(0-t): 837 ng·h/mL
  Cmax: 946 ng/mL
  Tmax: 15 min
  clearance: 330 mL/min/kg
  half-life: 56.2 min
  Vd: 1.07 L/kg
[1]; po, P.O., 5 mg/kg
  AUC(0-inf): 2900 ng·h/mL
  AUC(0-t): 2890 ng·h/mL
  Cmax: 2190 ng/mL
  Tmax: 25 min
  half-life: 57.5 min
[2]
  IC50: 0.14 nM
[3]
  IC50: 10.1 nM
Human recombinant DAO
  IC50: > 0.1 µM

## NC/C(=C\F)COc1ccc2c(c1)CCNC2=O [Compound 3, 6-[(E)-2-(aminomethyl)-3-fluoro-allyloxy]-3,4-dihydro-2H-isoquinolin-1-one hydrochloride]
Human recombinant DAO
  IC50: > 0.1 µM

## COCCN1CCc2cc(OC/C(=C/F)CN)ccc2C1=O [Compound 18, 6-[(E)-2-(aminomethyl)-3-fluoro-allyloxy]-2-(2-methoxyethyl)-3,4-dihydroisoquinolin-1-one hydrochloride]
[2]
  IC50: 0.48 nM
[3]
  IC50: 6.13 nM

## CN1CCc2cc(OC/C(=C\F)CN)ccc2C1=O [Compound 9, 6-[(Z)-2-(aminomethyl)-3-fluoro-allyloxy]-2-methyl-3,4-dihydroisoquinolin-1-one hydrochloride]
[2]
  IC50: 0.61 nM
[3]
  IC50: 8.05 nM

## Cc1ccc(N2CCc3cc(OC/C(=C/F)CN)ccc3C2=O)cc1 [Compound 24, 6-[(E)-2-(aminomethyl)-3-fluoro-allyloxy]-2-(p-methylphenyl)-3,4-dihydroisoquinolin-1-one hydrochloride]
[1]; iv, I.V., 1 mg/kg
  AUC(0-inf): 450 ng·h/mL
  AUC(0-t): 364 ng·h/mL
  Cmax: 144 ng/mL
  Tmax: 4.98 min
  clearance: 617 mL/min/kg
  half-life: 179 min
  Vd: 9.19 L/kg
[1]; po, P.O., 5 mg/kg
  AUC(0-inf): 5320 ng·h/mL
  AUC(0-t): 5280 ng·h/mL
  Cmax: 569 ng/mL
  Tmax: 150 min
  half-life: 207 min
[2]
  IC50: 1.16 nM
Human recombinant DAO
  IC50: > 0.1 µM

## Cc1ccccc1N1CCc2cc(OC/C(=C/F)CN)ccc2C1=O [Compound 46, 6-[(E)-2-(aminomethyl)-3-fluoro-allyloxy]-2-o-methylphenyl-3,4-dihydroisoquinolin-1-one hydrochloride]
Human recombinant DAO
  IC50: > 0.1 µM

## COCCN1CCc2cc(OC/C(=C\F)CN)ccc2C1=O [Compound 19, 6-[(Z)-2-(aminomethyl)-3-fluoro-allyloxy]-2-(2-methoxyethyl)-3,4-dihydro isoquinolin-1-one hydrochloride]
[2]
  IC50: 1 nM
[3]
  IC50: 5.7 nM

## NC/C(=C\F)COc1ccc2c(c1)CCN(C1CCOCC1)C2=O [Compound 16, 6-[(E)-2-(aminomethyl)-3-fluoro-allyloxy]-2-(tetrahydropyran-4-yl)-3,4-dihydroisoquinolin-1-one hydrochloride]
[2]
  IC50: 0.22 nM
[3]
  IC50: 6.01 nM

## NC/C(=C\F)COc1ccc2c(c1)C(=O)NCC2 [Compound 14, 7-[(E)-2-(aminomethyl)-3-fluoro-allyloxy]-3,4-dihydro-2H-isoquinolin-1-one hydrochloride]
Human recombinant DAO
  IC50: > 1 µM
